Experimental data taken from patent US20130237570A1 (priority 2002, published 2013).
Read-outs that look alike come from different tables or passages of the source.

Key:
[1] = Buffer capacity determination by titration with 0.1 M HCl; assay type: physicochemical; details: without added buffering agent
Protocol: Method: 10.0 ml of the respective below solutions was titrated with 0.1 M HCl to pH 7.0. The amount of 0.1 M HCl needed to decrease pH from 9.0 to 8.0 was determined

[2] = Source text: Absorption of nicotine from the oral cavity to the systemic circulation is dependent on the pH of the saliva and the pKa of nicotine, which is about 7.8. Assuming a pH of the saliva of 6.8 only about 10% of the nicotine in saliva will be in the free base form. Thus, in order to promote absorption of nicotine in a free base form, which is the form predominantly absorbed through the mucosa, the pH of the saliva must be increased. At a pH of 8.8 about 90% of the nicotine in saliva will then be in the free base form.
[3] = Merck Index; cited from earlier work
[4] = smoking of a cigarette; cited from earlier work

CN1CCCC1c1cccnc1 (centres unmarked) [nicotine, 3-(1-methyl-2-pyrrolidinyl)-pyridine]
buffering capacity on its own, in words [1]: too weak a buffering capacity on its own | nicotine in saliva in the free base form ([2]; saliva pH 6.8): about 10% | nicotine in saliva in the free base form ([2]; saliva pH 8.8): about 90% | amount of nicotine that may kill an adult [3]: Approximately forty | time for nicotine to reach the brain after inhalation [4]: around ten
